# According to paper PMC9016807, “Metabolic, Pharmacokinetic, and Activity Profile of the Liver Stage Antimalarial (RC-12)” (ACS Omega, 2022):
# Where “and” joins values, the source holds several entries; their conditions need not be identical. Equal values may be shown once. Read-outs that look alike come from different tables or passages of the source.
# Columns and labels:
# [1] = Metabolism in rhesus monkey liver microsomes; format: in vitro ADME; settings: rhesus monkey, liver microsomes; 1 μM substrate, 0.4 mg/mL microsomal protein, NADPH, 37 °C, 60 min; average of three replicates; read-out: CLint
# Description: (§1) Following the protocols described by Charman et al.,[28]1 was incubated at 37 °C with human, rat, and rhesus monkey liver microsomes. For the determination of intrinsic clearance, the substrate concentration was 1 μM and the protein concentration was 0.4 mg/mL; for qualitative metabolite identification studies, the substrate and protein concentrations were 10 μM and 1 mg/mL, respectively. The reaction was initiated by the addition of an NADPH-regenerating buffer system, and the samples were incubated for up to 60 (for Clint determination) or 180 min (for additional metabolite identification). Samples without the test compound and without NADPH were also incubated and used as controls. The reaction was quenched by protein precipitation with the addition of an equal volume of ice-cold acetonitrile solution (containing diazepam as an internal standard), followed by vortexing and centrifugation for 3 min at 10000 rpm. The supernatant was removed and analyzed by LC/MS. LC/MS analysis was conducted using a Waters Micromass Xevo G2 QTOF MS coupled to a Waters Acquity UPLC. For metabolite identification, a Supelco Ascentis Express Amide column (50 × 2.1 mm, 2.7 μm) was used with an acetonitrile–water gradient (containing 0.05% formic acid), a flow rate of 0.4 mL/min, a gradient cycle time of 6 min, and an injection volume of 5 μL. MS analysis was conducted using positive mode electrospray ionization under MSE acquisition mode, which allows simultaneous acquisition of MS spectra at low and high collision energies. The identity of putative metabolites was confirmed by the accurate mass and a comparison of the retention times and MS/MS fragmentation patterns with authentic metabolites where available. For metabolite quantitation, the method described below for the analysis of plasma samples was used.
# [2] = Metabolism in rat liver microsomes; format: in vitro ADME; settings: 1 μM substrate, NADPH
# Description: as §1
# [3] = tested on: P. vivax; set-up: method as in doi:10.1016/0035-9203(74)90194-1; settings: 7-day course at 10 mg/(kg day); cited from earlier work
# [4] = tested on: P. cynomolgi hypnozoites; set-up: method as in PMID 4091527; settings: cited from earlier work
# [5] = tested on: P. falciparum (NF54 clone); test: Blood stage activity against cultured P. falciparum; format: cell-based, Plasmodium falciparum; settings: concentration up to 15 μM
# [6] = Pharmacokinetics in rats after IV and PO administration; format: in vivo, male Sprague–Dawley rats
# Description: Animal studies were conducted using established procedures in accordance with the Australian Code of Practice for the Care and Use of Animals for Scientific Purposes, and the study protocols were reviewed and approved by the Monash Institute of Pharmaceutical Sciences Animal Ethics Committee. The study was conducted in overnight-fasted male Sprague–Dawley rats weighing 266–292 g. Rats had access to water ad libitum throughout the pre- and postdose sampling period, and access to food was reinstated 4 h postdose. Compound 1 was administered intravenously as a 10 min constant rate infusion via an indwelling jugular vein cannula (1 mL per rat, n = 5 rats) and orally by gavage (10 mL/kg per rat, n = 2–3 rats), and samples of arterial blood and total urine were collected up to 24 h postdose. Arterial blood was collected directly into borosilicate vials (at 4 °C) containing heparin. Blood samples were centrifuged, and the supernatant plasma was removed and stored frozen (−80 °C) until analysis by LC-MS. Plasma samples and calibration standards (prepared in blank rat plasma) were processed by protein precipitation with a 2-fold volume of acetonitrile. LC-MS analysis was conducted using a Waters Micromass Quattro Premier triple-quadrupole mass spectrometer coupled to a Waters Acquity UPLC with a Phenomenex C18 Kinetex column (50 × 2.1 mm, 2.7 μm). Elution was achieved using a methanol–water gradient (containing 8.2 mM formic acid and 1.25 mM ammonium formate) with a flow rate of 0.6 mL/min, a gradient cycle time of 6 min, and an injection volume of 2 μL. MS detection was conducted using positive electrospray ionization with multiple reaction monitoring. Transitions (m/z), cone voltages (V), and CID voltages (V) were as follows: 1, 430.26 > 99.93, 40, 20; 2, 416.27 > 99.80, 30, 20; 3, 402.22 > 99.93, 35, 20; 4, 388.23 > 99.86, 35, 20; 5: 374.25 > 72.01, 35, 25; diazepam (285.25 > […], 40, 25) (used as an internal standard). The quantitation range in plasma was typically 1–10000 ng/mL, and the accuracy and precision were within ±10% and <10%, respectively, for each analyte. Urine samples were analyzed using either a 20- or 200-fold dilution with 50% acetonitrile and assayed against calibration standards prepared in the same solvent.
# [7] = Metabolism in human liver microsomes; format: in vitro ADME; settings: 1 μM substrate, NADPH
# Description: as §1
# [8] = 0.4 mg/mL protein, relative to initial substrate concentration
# [9] = PO, 11 mg/kg, individual values n = 2
# [10] = male, Sprague-Dawley, rat, plasma, po, 27 mg/kg
smiles,measurement,setting,value
"CCN(CC)CCN(CCN(CC)CC)c1cc(OC)c(OC)cc1Br [Compound 1, 4-(2-bromo-4,5-dimethoxyphenyl)-1,1,7,7-tetraethyldiethylenetriamine]",microsomal CLint at 1 μM,[1],23 ± 4.7 µL/min/mg
same,average substrate depletion over a 60 min incubation,[2]; [8],~90%
same,microsomal CLint at 1 μM,"[2]; rat, liver microsomes, 0.4 mg/mL microsomal protein, 37 °C, 60 min, average of three replicates, read-out: CLint",100 ± 2.6 µL/min/mg
same,prevention of infections / inhibition of relapses of P. vivax,[3],did not prevent infections or inhibit relapses
same,tolerability,[3],well-tolerated
same,efficacy against hypnozoites relative to primaquine,[4],about 1 order of magnitude less effective than primaquine
same,hemolysis,[4],produced no hemolysis
same,toxicity relative to primaquine,[4],1 order of magnitude less toxic
same,blood stage activity,[5],no blood stage activity
same,dose excreted in urine as parent,"[6]; IV, 3 mg/kg, individual values",9.2% and 10.7%
same,Cmax,[6]; [9],50 nM
same,Tmax,[6]; [9],0.8 h
same,plasma half-life,[6]; [9],6.1 h
same,half-life,"[6]; male, Sprague-Dawley, rat, plasma, intravenous and oral, after IV and PO administration, read-out: terminal half-life",5 to 7 h
same,clearance,"[6]; male, Sprague-Dawley, rat, plasma, iv, 3 mg/kg",147 ± 33 mL/min/kg
same,half-life,"[6]; male, Sprague-Dawley, rat, plasma, iv, 3 mg/kg, IV, 3 mg/kg, n = 5, read-out: plasma half-life (converted)",7 ± 1.3 h
same,Vd,"[6]; male, Sprague-Dawley, rat, plasma, iv, 3 mg/kg, read-out: plasma volume of distribution",51 ± 10 L/kg
same,bioavailability,"[6]; male, Sprague-Dawley, rat, plasma, po, 11 mg/kg",~16%
same,Tmax,"[6]; male, Sprague-Dawley, rat, plasma, po, 11 mg/kg, PO, 11 mg/kg, individual values n = 2, read-out: Tmax",1 h
same,half-life,"[6]; male, Sprague-Dawley, rat, plasma, po, 11 mg/kg, PO, 11 mg/kg, individual values n = 2, read-out: plasma half-life (converted)",4.9 h
same,Cmax,"[6]; male, Sprague-Dawley, rat, plasma, po, 11 mg/kg, individual values n = 2",70 nM
same,Cmax,[6]; [10],310 ± 30 nM
same,bioavailability,[6]; [10],~27%
same,half-life,"[6]; male, Sprague-Dawley, rat, plasma, po, 27 mg/kg, PO, 27 mg/kg, n = 3, read-out: plasma half-life (converted)",7.4 ± 1.3 h
same,Tmax,"[6]; male, Sprague-Dawley, rat, plasma, po, 27 mg/kg, PO, 27 mg/kg, read-out: Tmax",1 h
same,Tmax,"[6]; male, Sprague-Dawley, rat, plasma, po, oral administration, read-out: time of maximum plasma concentrations postdose",~1 h
same,blood plasma ratio,"[6]; male, Sprague-Dawley, whole blood and plasma, 3 mg/kg, rat, IV column",2.1
same,renal elimination as share of overall in vivo clearance,[6]; rat,approximately 10%
same,average substrate depletion over a 60 min incubation,[7]; [8],<10%
same,microsomal CLint at 1 μM,"[7]; human, liver microsomes, 0.4 mg/mL microsomal protein, 37 °C, 60 min, average of three replicates, read-out: CLint",< 3 µL/min/mg
